Source: the METLIN SMRT retention time set (Domingo-Almenara et al. 2019)

Assay: gradient 5% acetonitrile 3 min, to 50% in 2 min, to 85% in 15 min, held 3 min, 100 µL/min
Settings: column: Zorbax Extend-C18 2.1 x 50 mm; eluents: water / acetonitrile, 0.1% formic acid
Method in brief: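 The mobile phases were water and acetonitrile, each with 0.1% formic acid, pumped at 100 μL/min through a Zorbax Extend-C18 column (2.1 × 50 mm, 1.8 μm). Pure standards were injected as mixtures of ~100 molecules and detected by a quadrupole time-of-flight mass spectrometer in positive and negative ionization mode. Retention time came from computationally picked adduct peaks, each inspected by hand.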

Row | SMILES | RP-LC retention time
1 | O=S(=O)(c1cccs1)N1CC(c2nc(-c3ccncc3)no2)C1 | 679 s
2 | Cc1c(-c2nnc(C3CCC3)o2)c(S(=O)(=O)NCc2ccc(Cl)cc2)c(C)n1C | 1010 s
3 | CC(C)CNC(=O)N1CC(c2nc(-c3ccccc3)no2)C2(CCOCC2)C1 (centres undefined) | 858 s
4 | CN(C)c1cccc(C(=O)Nc2ccc(-c3nnc4n3CCCC4)cc2)c1 | 736 s
5 | Cc1ccc(Nc2c(-c3ccc(N(C)C)cc3)nc3cnccn23)cc1Br | 990 s
6 | CCN1c2ccc(F)cc2C(=O)NC12CCN(C(=O)c1ccc(C)cc1C)CC2 | 861 s
7 | COc1ccc(-c2noc(-c3nnn4c3COC(c3ccc(Cl)cc3)C4)n2)cc1 (centres undefined) | 1190 s
8 | Cc1ccc2nc(-c3ccc(N4CCOCC4)cc3)c(Nc3ccccc3C)n2c1 | 755 s
9 | CC(=O)OCCNc1nc(-c2ccccc2)nc2ccccc12 | 623 s
10 | CC(C)c1ccc(S(=O)(=O)N2CCC(c3cc(N)on3)CC2)cc1 | 902 s
11 | CCn1ccc2cc(S(=O)(=O)N3CCC(C(=O)N4CCN(c5ncccn5)CC4)CC3)ccc21 | 880 s
12 | COc1ccc(OC)c(C(C)NC(=O)CCc2ccc3nc[nH]c3c2)c1 (centres undefined) | 613 s
13 | CCn1c(=O)c2c(cc(C)n2C)n(CC(=O)Nc2cc(Cl)ccc2OC)c1=O | 888 s
14 | COCc1nncn1C1CCN(S(=O)(=O)c2ccc(F)c(Cl)c2)CC1 | 739 s
15 | CC1=C(c2ccc(C)cc2)S(=O)(=O)N=C1N1CCCN(C(=O)NCc2ccco2)CC1 | 803 s
16 | CC(C)c1cc(C(=O)NC2CC2)nc2cc(-c3ccccn3)nn12 | 819 s
17 | O=C(NC1CC1)[C@@H]1C[C@H](Oc2ccccc2)CN1C(=O)C1CC=CC1 | 755 s
18 | Cc1cc(C)cc(C(=O)NC2CCN(c3cc(-c4cccs4)[nH]n3)C2)c1 (centres undefined) | 742 s
19 | Cc1ccc(-c2nc3nc(C)cc(C)n3c2Nc2c(C)cccc2C)cc1 | 806 s
20 | Cc1cccc(C)c1NC(=O)N1CCC(OC2CCN(S(C)(=O)=O)CC2)CC1 | 718 s
21 | Cc1ccc(C)c(S(=O)(=O)N2CCc3c(c(-c4nnc(-c5ccccc5F)o4)nn3C)C2)c1 | 1010 s

Row | SMILES | RP-LC retention time
22 | CC(=O)Nc1ccc2cc3ccc(NC(C)=O)cc3nc2c1 | 632 s
23 | Cc1nc(-c2ccccc2)sc1C(=O)NC1CC1 | 799 s
24 | CC1CCN(C(=O)c2csc(-c3ccc(N4CCCC4)nc3)n2)CC1 | 660 s
25 | O=C(CN1CCCCC1c1nc(-c2cccc(F)c2)no1)Nc1cccc(F)c1 (centres undefined) | 967 s
26 | CCc1noc(NC(C)=O)c1-c1ccc(C)c(S(=O)(=O)Nc2ccc(Br)c(C)c2)c1 | 951 s
27 | COCCC1CCN(C(=O)CC2CCN(C(C)=O)CC2)CC1 | 626 s
28 | CN=C(NC#N)Nc1ccc(C2=NNC(=O)CC2C)cc1 (centres undefined) | 672 s
29 | N#Cc1ccc(N2CCN(C(=O)COc3ccc4[nH]cc(CCN)c4c3)CC2)cc1 | 684 s
30 | CCCOc1ccc(-c2nc(N3CCCCC3)c3ccccc3n2)cc1 | 930 s
31 | COc1ccccc1CNC(=O)c1ccc2c(c1)N(C)C(=O)c1ccccc1O2 | 862 s
32 | CC(C)N1C(=O)C(C)(C(=O)Nc2ccccc2F)Oc2cccnc21 (centres undefined) | 973 s
33 | Cc1ccc(C(=O)N2CCc3cc(CNC(=O)c4ccnn4C)ccc32)cc1 | 821 s
34 | O=C(NCc1cccnc1)C1CCN(Cc2cc3ccccc3n2Cc2cccc(Cl)c2)CC1 | 750 s
35 | CCOc1ccc(C(=O)Nc2nc3c(s2)CCc2ccccc2-3)cc1 | 1200 s
36 | O=C(O)c1cn(-c2ccc(F)c(F)c2)nn1 | 664 s
37 | CCOc1ccc(-c2noc(CS(=O)(=O)c3cc(C)c(C)cc3C)n2)cc1 | 1110 s
38 | O=C(COC(=O)c1cccnc1)Nc1ccc2c(c1)OCO2 | 640 s
39 | Cc1cc(C(=O)Nc2ccc(Cl)cc2)nc2cc(-c3ccco3)nn12 | 1170 s
40 | Clc1ccc(-c2nc3ccccn3c2Nc2ccc3c(c2)OCCO3)cc1 | 708 s
41 | O=C1Nc2ccccc2SC1C(=O)N1CCC(C(=O)N2CCN(c3ccccc3F)CC2)CC1 (centres undefined) | 784 s
42 | CCn1c(=O)c2c(cc(C)n2C)n(CC(=O)Nc2ccc(C)c(F)c2)c1=O | 855 s

Second part, the compound after the results:

Row | RP-LC retention time | SMILES
43 | 759 s | CCC(C)n1c(C)cc(=O)n1C(C)CC (centres undefined)
44 | 939 s | COc1cc2c(cc1CNC(=O)c1ccc(Br)cc1)OCCCO2
45 | 872 s | Cc1ccccc1-c1nnc(COc2ccc(NC(=O)c3ccoc3)cc2)o1
46 | 737 s | Cc1ccc(-c2cn3cccc(C)c3n2)cc1NS(=O)(=O)c1ccc(Br)cc1
47 | 684 s | c1coc(CN2CC(Oc3ccc(-c4noc(C5CC5)n4)cc3)C2)c1
48 | 1130 s | Cc1ccc(-c2noc(CN3C(=O)COc4cc(C)ccc43)n2)cc1
49 | 1140 s | COc1ccc(Cl)cc1NC(=O)C(=O)c1cccn1C
50 | 567 s | CCN1CCN(C(=O)c2n[nH]c3c2CC(C)CC3)CC1 (centres undefined)
51 | 1340 s | Cc1ccc(-c2nc(Nc3ccccc3F)sc2C)cc1
52 | 686 s | CC(=O)N1CCN(CCOc2ccc(C3CCN(C4=Nn5c(nnc5C(F)(F)F)CC4)CC3)cc2)CC1
53 | 806 s | O=C(Cc1csc(SCC(=O)c2cccs2)n1)NCCc1c[nH]c2ccccc12
54 | 604 s | COc1ccc(CC(=O)Nc2ccc(-c3cn4ccsc4n3)cc2)cc1OC
55 | 1060 s | O=C(Cn1cccc(-c2nc(-c3ccc(Br)cc3)no2)c1=O)NCCc1ccccc1
56 | 1050 s | O=c1ccc(-c2ccc3c(c2)OCO3)nn1CCc1nc(-c2ccc(Cl)c(F)c2)no1
57 | 1030 s | Cn1c(=O)oc2cc(-c3noc(CCc4ccccc4)n3)ccc21
58 | 629 s | CCOC(=O)N1CCN(c2cc(C(=O)O)c3cc(NC(=O)COc4ccccc4)ccc3n2)CC1
59 | 1090 s | O=C(NCc1ccco1)c1csc(N2CCN(c3ccc(Cl)cc3)CC2)n1
60 | 726 s | Cc1cccc(CN2CC=C(C(=O)N3CCN(c4ccccc4C)CC3)CC2)c1
61 | 542 s | O=C(NCCc1cn2c(n1)SCC2)C(=O)Nc1ccc(F)cc1
62 | 779 s | COc1cccc(Cn2cc(S(=O)(=O)N3CCCC3)ccc2=O)c1
63 | 630 s | CN(CCNC(=O)c1ccc2c(c1)NC(=O)C1CCCCN21)Cc1ccccc1 (centres undefined)
64 | 772 s | Cc1ccccc1Cn1nc2n(c1=O)CCCCC2
65 | 779 s | CN(CCc1noc(-c2ccc(C(=O)N3CCCCC3)cc2)n1)C(=O)c1ccc2c(c1)OCO2
66 | 625 s | COc1ccccc1-c1nc(-c2ccc3c(c2)ncn3CCN2CCOCC2)no1

Row | RP-LC retention time | SMILES
67 | 1020 s | Cc1ccc(-c2cc3c4nnc(SCC(=O)Nc5ccccc5C(F)(F)F)n4ccn3n2)cc1C
68 | 756 s | COc1ccc(C(=O)NC2CCN(c3ccc(F)cc3)C2=O)cc1 (centres undefined)
69 | 642 s | CNC(=O)c1cn(-c2ccc(SCC(=O)NCc3ccc4c(c3)OCO4)nn2)cn1
70 | 750 s | O=C(c1ccc(OCC2CCCN(C(=O)C3CCCC3)C2)cc1)N1CCOCC1 (centres undefined)
71 | 814 s | CC(C)n1c(N2CCN(C(=O)c3c(F)cccc3F)CC2)cc(=O)n(C(C)C)c1=O
72 | 1170 s | Nc1nc(-c2ccc(Cl)cc2)nn1C(=O)Cc1ccc(Cl)cc1
73 | 683 s | O=C(NCCc1ccccc1)NCCn1c(-c2ccccc2)nc2cccnc21
74 | 829 s | Cn1cc(-c2cc3n(n2)CCC(=O)N3CC(=O)Nc2cccc(F)c2)c2ccccc21
75 | 602 s | COc1ccc(N2CCN(C(=O)C3CCN(c4cncnc4N(C)C)CC3)CC2)cc1
76 | 894 s | CCNC(=O)Nc1ccc2c(c1)CN(S(=O)(=O)c1ccc3c(c1)CCC3)CCO2
77 | 863 s | CCN1c2cc(Cl)ccc2C(=O)NC12CCN(C(=O)NCCc1ccccc1)CC2
78 | 689 s | CCCCCNC(=O)c1ccc2nc(CCc3ccc(NC(=O)C(C)C)cc3)[nH]c2c1
79 | 1000 s | COc1nc2ccccc2nc1N1CCCC(C(=O)NC2CCCC2)C1 (centres undefined)
80 | 714 s | COc1cccc(NC(=O)C2CCN(C(=O)C3CC(=O)N(c4ccccc4)C3)CC2)c1 (centres undefined)
81 | 820 s | CCOC(=O)c1c(C)[nH]c(C(=O)N2CCC(CC(=O)NCc3cccc(C)c3)CC2)c1C
82 | 611 s | CCCCN(CC)CCCNC(=O)C1CCCN(c2ncnc3c2nc2n3CCCCC2)C1 (centres undefined)
83 | 737 s | CCn1nccc1C(=O)N1CCCN(C2=NS(=O)(=O)C(c3ccc(F)cc3)=C2C)CC1
84 | 810 s | Cc1ccn2c(Nc3ccccc3C)c(-c3ccc(Cl)cc3)nc2c1
85 | 808 s | CCN1C(=O)c2cccnc2Sc2cc(NC(=O)c3c(F)cccc3F)ccc21
86 | 776 s | CC(C)N1C(=O)c2cccnc2Sc2cc(NC(=O)c3ccco3)ccc21
87 | 712 s | COc1ccc(NC(=O)C2CCCN(c3cnc4nc(C)c(C)nc4c3)C2)c(C)c1 (centres undefined)
88 | 930 s | O=c1c(=O)n(Cc2nc(-c3cccc(F)c3)no2)ccn1Cc1ccc(Cl)cc1
89 | 769 s | O=C(NCCc1csc2nc(-c3cccs3)nn12)c1ccc(Br)o1
